Assay results taken from US7053215B2, “Substituted Quinazolin-4(3H)-one compounds, compositions, and methods for their use” (Amgen SF, LLC, priority 2000, dated 2006).

CC(c1nc2ccccc2c(=O)n1-c1ccc(F)cc1)N(Cc1ccccn1)C(=O)Cc1ccc(C(F)(F)F)cc1.Cl (stereo not shown)
melting point: 159.2 °C
